In patent US20240067693A1, “POLYPEPTIDES AND USES THEREOF” (MEDIMMUNE LIMITED, priority 2020, published 2024):
Numbered stars: 1 amine (or outer) side, 2 acyl side, 3 side chain; on linkers, the order of the positions; unused ones are H or OH. Bridge positions count the residues as written; N and C are the ends. Peptide text beside a SMILES is read from it. * marks the point of attachment. C20 diacid = O=C(O)CCCCCCCCCCCCCCCCCCC(=O)*; γGlu = O=C(O)[C@H](CCC(=O)[*:2])N[*:1]; AEEA = NCCOCCOCC(=O)O

Key:
[1] = biological target: T1, human amylin receptor (calcitonin receptor co-expressed with receptor activity modifying protein, RAMP3) (hAMYR3) (Homo sapiens, UniProt O60896+P30988); assay: cAMP production in 1321N1 cells with stable recombinant expression of human amylin receptor (hAMYR3); format: cell-based; conditions: for Ratio (selectivity hAMYR vs hCTR, ratio of EC50 values at the two receptors): EC50 hCTR / EC50 hAMYR3; for EC50: cAMP, 1321N1 cells, assay buffer with 0.1% BSA, read-out: EC50 (pM) hAMYR3
T1 construct: expressed in transfected cells
T1 sequence (P30988 25-474): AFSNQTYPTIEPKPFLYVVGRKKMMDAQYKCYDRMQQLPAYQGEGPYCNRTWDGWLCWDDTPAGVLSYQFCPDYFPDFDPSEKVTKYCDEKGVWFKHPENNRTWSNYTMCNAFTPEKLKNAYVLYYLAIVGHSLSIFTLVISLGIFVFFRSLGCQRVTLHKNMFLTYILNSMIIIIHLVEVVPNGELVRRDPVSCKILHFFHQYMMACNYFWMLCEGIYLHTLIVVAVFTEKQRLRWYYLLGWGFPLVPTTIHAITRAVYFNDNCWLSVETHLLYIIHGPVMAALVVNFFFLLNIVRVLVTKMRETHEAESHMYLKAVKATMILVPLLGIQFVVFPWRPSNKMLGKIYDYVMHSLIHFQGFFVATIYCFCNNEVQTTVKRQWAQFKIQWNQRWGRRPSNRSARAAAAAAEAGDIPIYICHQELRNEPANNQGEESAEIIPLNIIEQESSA
T1 sequence (O60896 24-148 partner): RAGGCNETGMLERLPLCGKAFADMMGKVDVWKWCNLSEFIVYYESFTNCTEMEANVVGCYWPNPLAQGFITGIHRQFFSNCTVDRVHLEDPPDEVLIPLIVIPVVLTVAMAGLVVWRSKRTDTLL
Summary of the method: (§1)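 EC50 values come from 4-parameter logistic fits of HTRF cAMP signal, normalised to maximal calcitonin or amylin effect. Peptides were tested in duplicate for 30 min at RT in IBMX-containing (0.5 mM) BSA/HEPES buffer pH 7.4 on stable 1321N1 (human CTR, AMYR3) or HEK (rat CTR, AMYR3) lines.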

in vivo = conditions: male, Sprague-Dawley, rat, 20 nmol/kg
[2] = biological target: T2, human calcitonin receptor (hCTR) (Homo sapiens, UniProt P30988); assay: cAMP production in 1321N1 cells with stable recombinant expression of human calcitonin receptor (hCTR); format: cell-based; conditions: cAMP, 1321N1 cells, assay buffer with 0.1% BSA; read-out: EC50 (pM) hCTR
T2 construct: expressed in transfected cells
T2 sequence (P30988 25-474): T1 sequence (P30988 25-474)
Summary of the method: as §1

For CC[C@H](C)[C@H](NC(=O)[C@@H]1CCCN1C(=O)CNC(=O)[C@H](Cc1ccccc1)NC(=O)[C@H](CC(N)=O)NC(=O)[C@H](CC(N)=O)NC(=O)[C@H](CO)NC(=O)[C@H](CO)NC(=O)[C@H](Cc1c[nH]cn1)NC(=O)[C@@H](NC(=O)[C@H](CC(C)C)NC(=O)[C@H](Cc1ccccc1)NC(=O)[C@H](CC(N)=O)NC(=O)[C@H](C)NC(=O)[C@H](CC(C)C)NC(=O)[C@H](CCCNC(=N)N)NC(=O)[C@H](CCC(N)=O)NC(=O)[C@@H](NC(=O)[C@H](C)NC(=O)[C@@H]1CSSC[C@H](NC(=O)[C@H](CCCCN)NC(=O)CC[C@H](NC(=O)CCCCCCCCCCCCCCCCCCC(=O)O)C(=O)O)C(=O)N[C@@H](CC(N)=O)C(=O)N[C@@H]([C@@H](C)O)C(=O)N[C@@H](C)C(=O)N[C@@H]([C@@H](C)O)C(=O)N1)[C@@H](C)O)C(C)C)C(=O)N[C@@H](CC(C)C)C(=O)N1CCC[C@H]1C(=O)N1CCC[C@H]1C(=O)N[C@H](C(=O)N[C@@H](CC(N)=O)C(=O)N[C@H](C(=O)NCC(=O)N[C@@H](CO)C(=O)N[C@@H](CC(N)=O)C(=O)N[C@H](C(=O)N[C@@H](Cc1ccc(O)cc1)C(N)=O)[C@@H](C)O)C(C)C)[C@@H](C)O [Peptide 112] ({C20 diacid-γGlu}-KCNTATCATQRLANFLVHSSNNFGPILPPTNVGSNTY-NH2; disulfide 2-7), the “Ratio (selectivity hAMYR vs hCTR, ratio of EC50 values at the two receptors)” value [1] was 2, the EC50 [1] was 861 pM and the half-life (in vivo; iv) was 11.8 h. The half-life (in vivo; sc) was 19 h and the EC50 [2] was 1340 pM.
For CC[C@H](C)[C@H](NC(=O)[C@@H]1CCCN1C(=O)CNC(=O)[C@H](Cc1ccccc1)NC(=O)[C@H](CC(N)=O)NC(=O)[C@H](CC(N)=O)NC(=O)[C@H](CO)NC(=O)[C@H](CO)NC(=O)[C@H](Cc1c[nH]cn1)NC(=O)[C@@H](NC(=O)[C@H](CC(C)C)NC(=O)[C@H](Cc1ccccc1)NC(=O)[C@H](CC(N)=O)NC(=O)[C@H](C)NC(=O)[C@H](CC(C)C)NC(=O)[C@H](CCCNC(=N)N)NC(=O)[C@H](CCC(N)=O)NC(=O)[C@@H](NC(=O)[C@H](C)NC(=O)[C@@H]1CSSC[C@H](NC(=O)[C@H](CCCCN)NC(=O)COCCOCCNC(=O)COCCOCCNC(=O)CC[C@H](NC(=O)CCCCCCCCCCCCCCCCCCC(=O)O)C(=O)O)C(=O)N[C@@H](CC(N)=O)C(=O)N[C@@H]([C@@H](C)O)C(=O)N[C@@H](C)C(=O)N[C@@H]([C@@H](C)O)C(=O)N1)[C@@H](C)O)C(C)C)C(=O)N[C@@H](CC(C)C)C(=O)N1CCC[C@H]1C(=O)N1CCC[C@H]1C(=O)N[C@H](C(=O)N[C@@H](CC(N)=O)C(=O)N[C@H](C(=O)NCC(=O)N[C@@H](CO)C(=O)N[C@@H](CC(N)=O)C(=O)N[C@H](C(=O)N[C@@H](Cc1ccc(O)cc1)C(N)=O)[C@@H](C)O)C(C)C)[C@@H](C)O [Peptide 113] ({C20 diacid-γGlu-AEEA-AEEA}-KCNTATCATQRLANFLVHSSNNFGPILPPTNVGSNTY-NH2; disulfide 2-7), the “Ratio (selectivity hAMYR vs hCTR, ratio of EC50 values at the two receptors)” value [1] was 16, the EC50 [1] was 1170 pM and the half-life (in vivo; iv) was 11.2 h. The half-life (in vivo; sc) was 18.2 h and the EC50 [2] was 18500 pM.
